Source: patent EP4752139A1, “BRANCHED MULTI-HYDROXYL-PROTECTING OLIGOMER, LINKED BODY BONDED THEREWITH, AND BRANCHED MULTI-HYDROXYL OLIGOMER OBTAINED BY DEPROTECTING SAID LINKED BODY” (Tomoike Bio Ltd., priority 2023, dated 2025)

Test: Evaluation of water solubility of deprotected pterostilbene linked bodies
Assay type: physicochemical
Details: ion-exchanged water; solubility threshold could not be measured because the compound was extremely water-soluble
Procedure: The deprotected pterostilbene linked body obtained in Examples were evaluated for water solubility using the following method. In FIGs 1 and 2, the numbers in the ellipses for each compound represent a level of water solubility as a molar ratio, with the water solubility of F1 (pterostilbene) (21 mg (0.0819 mmol) dissolved in 1 liter) being set at 1.0. The water solubility of F1 (pterostilbene) was determined using the value described in Sarah J. Bethune et al., Cryst. Growth Des. 2011, 11, 2817-2823. The water solubility of F1 glycoside (pterostilbene monoglycoside) was determined using the value described in Jose L. Gonzalez-Alfonso et al., Molecules 2018, 23, 1271.
Into a round-bottom flask was weighed 1.0 g of the compound and 100 mL of ion-exchanged water in sequence and the mixture was heated with a heat gun for about 1 minute, taking care not to boil the mixture, and then cooled to room temperature and allowed to stand. After 24 hours, the residue was removed by filtration, and the filtrate was concentrated under reduced pressure. A water solubility of each compound was calculated from the weight of the compound recovered from the filtrate.
In a round-bottom flask, a solution was prepared the amounts of the compound and ion-exchanged water shown in Figure 1, and a water solubility of the compound was calculated. Because the compound was extremely water-soluble, a water solubility threshold could not be measured. However, compared to the hardly water-soluble F1, its water solubility was 2×10^4 times or more, that is, extremely higher.

Row | water solubility compared to the hardly water-soluble F1 | SMILES
1 | ≥ 2×10^4 times | COc1cc(/C=C/c2ccc(OCC(COCC(O)CO)(COCC(O)CO)COCC(O)CO)cc2)cc(OC)c1 (stereo not drawn) [H139, (E)-3,3'-((2-((2,3-dihydroxypropoxy)methyl)-2-((4-(3,5-dimethoxystyryl)phenoxy)methyl)propane-1,3-diyl)bis(oxy))bis(propane-1,2-diol)]
2 | ≥ 2×10^4 times | COc1cc(/C=C/c2ccc(OCC(COC(CO)CO)(COC(CO)CO)COC(CO)CO)cc2)cc(OC)c1 [H129, (E)-2,2'-((2-(((1,3-dihydroxypropan-2-yl)oxy)methyl)-2-((4-(3,5-dimethoxystyryl)phenoxy)methyl)propane-1,3-diyl)bis(oxy))bis(propane-1,3-diol)]
3 | ≥ 2×10^4 times | COc1cc(/C=C/c2ccc(OCC(CO)(CO)COCC(COCC(O)CO)(COCC(O)CO)COCC(O)CO)cc2)cc(OC)c1 (stereo not drawn) [J139, (E)-3,3'-((2-((2,3-dihydroxypropoxy)methyl)-2-((3-(4-(3,5-dimethoxystyryl)phenoxy)-2,2-bis(hydroxymethyl)propoxy)methyl)propane-1,3-diyl)bis(oxy))bis(propane-1,2-diol)]
4 | ≥ 2×10^4 times | COc1cc(/C=C/c2ccc(OCC(CO)(CO)COC(COCC(CO)(CO)CO)COCC(CO)(CO)CO)cc2)cc(OC)c1 [J219, (E)-2,2'-(((2-(3-(4-(3,5-dimethoxystyryl)phenoxy)-2,2-bis(hydroxymethyl)propoxy)propane-1,3-diyl)bis(oxy))bis(methylene))bis(2-(hydroxymethyl)propane-1,3-diol)]
5 | ≥ 2×10^4 times | COc1cc(/C=C/c2ccc(OCC(CO)(CO)COC(COC(CO)CO)COC(CO)CO)cc2)cc(OC)c1 [J229, (E)-2,2'-((2-(3-(4-(3,5-dimethoxystyryl)phenoxy)-2,2-bis(hydroxymethyl)propoxy)propane-1,3-diyl)bis(oxy))bis(propane-1,3-diol)]
6 | ≥ 2×10^4 times | COc1cc(/C=C/c2ccc(OCC(CO)(CO)COCC(COCC(CO)(CO)CO)(COCC(CO)(CO)CO)COCC(CO)(CO)CO)cc2)cc(OC)c1 [J119, (E)-2,2'-(((2-((3-(4-(3,5-dimethoxystyryl)phenoxy)-2,2-bis(hydroxymethyl)propoxy)methyl)-2-((3-hydroxy-2,2-bis(hydroxymethyl)propoxy)methyl)propane-1,3-diyl)bis(oxy))bis(methylene))bis(2-(hydroxymethyl)propane-1,3-diol)]
7 | ≥ 2×10^4 times | COc1cc(/C=C/c2ccc(OCC(CO)(CO)COC(COCC(O)CO)COCC(O)CO)cc2)cc(OC)c1 (stereo not drawn) [J239, (E)-3,3'-((2-(3-(4-(3,5-dimethoxystyryl)phenoxy)-2,2-bis(hydroxymethyl)propoxy)propane-1,3-diyl)bis(oxy))bis(propane-1,2-diol)]
8 | ≥ 2×10^4 times | COc1cc(/C=C/c2ccc(OCC(CO)(CO)COCC(COC(CO)CO)(COC(CO)CO)COC(CO)CO)cc2)cc(OC)c1 [J129, (E)-2,2'-((2-(((1,3-dihydroxypropan-2-yl)oxy)methyl)-2-((3-(4-(3,5-dimethoxystyryl)phenoxy)-2,2-bis(hydroxymethyl)propoxy)methyl)propane-1,3-diyl)bis(oxy))bis(propane-1,3-diol)]

Same assay, conditions: water solubility of F1 (pterostilbene) set at 1.0 (reference)

Row | level of water solubility as a molar ratio | SMILES
9 | 1.0 | COc1cc(/C=C/c2ccc(O)cc2)cc(OC)c1 [F1, (E)-4-(3,5-dimethoxystyryl)phenol, reference compound]
